Reference: ChEMBL document CHEMBL1121741, “Acidic epinephrine analogues derived from 1H, 3H-2,1,3-benzothiadiazole 2,2-dioxide and from trifluoromethanesulfonanilide. A new synthesis of 1H,3H-2,1,3-benzothiadiazole 2,2-dioxide” (J Med Chem, 1981)

Tests used:
[1] = Acidity determined spectrometrically; assay type: ADME
[2] = Acidity of compound was determined; assay type: ADME
[3] = Partition coefficient (logP); assay type: physicochemical; conditions: octanol/water

SMILES | pKa [1] | pKa [2] | logP [3]
CNCC(O)c1ccc2c(c1)NS(=O)(=O)N2 (stereo unspecified) | 4.67 | – | –
CC(C)(C)NCC(O)c1ccc2c(c1)NS(=O)(=O)N2 (stereo unspecified) | 4.7 | – | –
CC(C)NCC(O)c1ccc2c(c1)NS(=O)(=O)N2 (stereo unspecified) | 4.68 | – | –
NCC(O)c1ccc2c(c1)NS(=O)(=O)N2 (stereo unspecified) | 4.68 | – | –
O=S(=O)(CF)Nc1ccccc1 | – | 7.53 | 1.35

Continued, values first:

pKa [1] | pKa [2] | logP [3] | SMILES
3.63 | – | – | CC(C)NCC(O)c1cccc(NS(=O)(=O)C(F)(F)F)c1 (stereo unspecified)
– | 5.26 | 1.12 | O=S1(=O)Nc2ccccc2N1
– | 9.5 | 0.85 | Oc1cccc(O)c1 [RESORCINOL]
– | 4.45 | 3.03 | O=S(=O)(Nc1ccccc1)C(F)(F)F
3.65 | – | – | CC(C)NCC(O)c1ccc(NS(=O)(=O)C(F)(F)F)cc1 (stereo unspecified)
– | 8.85 | 0.95 | CS(=O)(=O)Nc1ccccc1
